From the supplement of paper PMC13207355
Where a name gives a salt, the structure may show the parent alone.

Experiments:
Settings in all cases: exposure time: 72 h
[1] = tested on: E21 (patient-derived glioblastoma stem cells of mesenchymal subtype); assay: surviving fraction (nuclei count normalised to DMSO); higher = more cells surviving (less toxic)
[2] = tested on: FT3469 (normal neural stem cell line); assay: as above
[3] = tested on: E57 (patient-derived glioblastoma stem cells of mesenchymal subtype); assay: as above
[4] = tested on: E34 (patient-derived glioblastoma stem cells of proneural subtype); assay: as above
[5] = tested on: E28 (patient-derived glioblastoma stem cells of classical subtype); assay: as above
[6] = tested on: E13 (patient-derived glioblastoma stem cells of classical subtype); assay: as above
[7] = tested on: E31 (patient-derived glioblastoma stem cells of proneural subtype); assay: as above
[8] = tested on: E21; assay: phenotypic distance (Euclidean, principal components) from DMSO controls (arbitrary units); higher = stronger morphological change
[9] = tested on: FT3469; assay: as above
[10] = tested on: E57; assay: as above
[11] = tested on: E34; assay: as above
[12] = tested on: E28; assay: as above
[13] = tested on: E13; assay: as above
[14] = tested on: E31; assay: as above
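Wherever phenotypic distance (Euclidean, principal components) from DMSO controls is given: cell Painting imaging in 384-well plates, CellProfiler features reduced to at least 20 principal components, Euclidean distance versus same-plate DMSO vehicle wells (0.1% v/v), median over six images per well.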
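Wherever surviving fraction (nuclei count normalised to DMSO) is given: nuclei counted by high-content imaging of Hoechst-stained cells in laminin-coated 384-well plates, relative to 0.1% DMSO vehicle wells, with staurosporine as cell-death control.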

C/C(=C\c1csc(C)n1)[C@@H]1C[C@@H]2O[C@]2(C)CCC[C@H](C)[C@H](O)[C@@H](C)C(=O)C(C)(C)[C@@H](O)CC(=O)N1 [Ixabepilone]
Settings	phenotypic distance	surviving fraction
[1], 4.1 nM	–	0.229
[1], 12.3 nM	–	0.256
[1], 37 nM	–	0.211
[1], 111.1 nM	–	0.245
[1], 333.3 nM	–	0.286
[1], 1000 nM	–	0.259
[1], 3000 nM	–	0.243
[2], 4.1 nM	–	0.574
[2], 12.3 nM	–	0.624
[2], 37 nM	–	0.63
[2], 111.1 nM	–	0.677
[2], 333.3 nM	–	0.521
[2], 1000 nM	–	0.716
[2], 3000 nM	–	0.548
[3], 4.1 nM	–	0.172
[3], 12.3 nM	–	0.152
[3], 37 nM	–	0.128
[3], 111.1 nM	–	0.0952
[3], 333.3 nM	–	0.0774
[3], 1000 nM	–	0.0873
[3], 3000 nM	–	0.0627
[4], 4.1 nM	–	0.609
[4], 12.3 nM	–	0.672
[4], 37 nM	–	0.582
[4], 111.1 nM	–	0.531
[4], 333.3 nM	–	0.465
[4], 1000 nM	–	0.421
[4], 3000 nM	–	0.331
[5], 4.1 nM	–	0.611
[5], 12.3 nM	–	0.6
[5], 37 nM	–	0.431
[5], 111.1 nM	–	0.464
[5], 333.3 nM	–	0.345
[5], 1000 nM	–	0.404
[5], 3000 nM	–	0.237
[6], 4.1 nM	–	0.341
[6], 12.3 nM	–	0.286
[6], 37 nM	–	0.271
[6], 111.1 nM	–	0.193
[6], 333.3 nM	–	0.21
[6], 1000 nM	–	0.193
[6], 3000 nM	–	0.175
[7], 4.1 nM	–	0.269
[7], 12.3 nM	–	0.261
[7], 37 nM	–	0.172
[7], 111.1 nM	–	0.149
[7], 333.3 nM	–	0.137
[7], 1000 nM	–	0.208
[7], 3000 nM	–	0.157
[8], 4.1 nM	6.26	–
[8], 12.3 nM	5.66	–
[8], 37 nM	6.8	–
[8], 111.1 nM	5.59	–
[8], 333.3 nM	6.55	–
[8], 1000 nM	6.74	–
[8], 3000 nM	6.15	–
[9], 4.1 nM	2.99	–
[9], 12.3 nM	3.28	–
[9], 37 nM	4.81	–
[9], 111.1 nM	3.58	–
[9], 333.3 nM	3.51	–
[9], 1000 nM	4.06	–
[9], 3000 nM	4.05	–
[10], 4.1 nM	6.02	–
[10], 12.3 nM	5.51	–
[10], 37 nM	5.64	–
[10], 111.1 nM	5.48	–
[10], 333.3 nM	7.37	–
[10], 1000 nM	6.58	–
[10], 3000 nM	6.89	–
[11], 4.1 nM	2.35	–
[11], 12.3 nM	2.42	–
[11], 37 nM	2.65	–
[11], 111.1 nM	3.43	–
[11], 333.3 nM	3.13	–
[11], 1000 nM	3.44	–
[11], 3000 nM	4.33	–
[12], 4.1 nM	2.8	–
[12], 12.3 nM	2.1	–
[12], 37 nM	3.6	–
[12], 111.1 nM	4.12	–
[12], 333.3 nM	4.09	–
[12], 1000 nM	3.46	–
[12], 3000 nM	4.61	–
[13], 4.1 nM	4.32	–
[13], 12.3 nM	5.35	–
[13], 37 nM	4.56	–
[13], 111.1 nM	5.86	–
[13], 333.3 nM	5.9	–
[13], 1000 nM	6.44	–
[13], 3000 nM	6.86	–
[14], 4.1 nM	2.61	–
[14], 12.3 nM	3.43	–
[14], 37 nM	3.83	–
[14], 111.1 nM	4.57	–
[14], 333.3 nM	4.48	–
[14], 1000 nM	4.78	–
[14], 3000 nM	4.08	–

N=C(N)c1ccc(-c2ccc(-c3ccc(C(=N)N)cc3)o2)cc1 [Furamidine dihydrochloride]
Settings	phenotypic distance	surviving fraction
[1], 4.1 nM	–	0.927
[1], 12.3 nM	–	0.912
[1], 37 nM	–	1
[1], 111.1 nM	–	1.01
[1], 333.3 nM	–	1.02
[1], 1000 nM	–	1.03
[1], 3000 nM	–	0.975
[2], 4.1 nM	–	0.904
[2], 12.3 nM	–	0.883
[2], 37 nM	–	0.856
[2], 111.1 nM	–	0.949
[2], 333.3 nM	–	1.12
[2], 1000 nM	–	1
[2], 3000 nM	–	1
[3], 4.1 nM	–	0.99
[3], 12.3 nM	–	0.991
[3], 37 nM	–	1.08
[3], 111.1 nM	–	0.988
[3], 333.3 nM	–	0.981
[3], 1000 nM	–	0.956
[3], 3000 nM	–	0.828
[4], 4.1 nM	–	0.983
[4], 12.3 nM	–	1.13
[4], 37 nM	–	1.1
[4], 111.1 nM	–	1.21
[4], 333.3 nM	–	1.2
[4], 1000 nM	–	1.09
[4], 3000 nM	–	1.2
[5], 4.1 nM	–	0.932
[5], 12.3 nM	–	1.02
[5], 37 nM	–	0.995
[5], 111.1 nM	–	1.04
[5], 333.3 nM	–	0.901
[5], 1000 nM	–	1.05
[5], 3000 nM	–	0.861
[6], 4.1 nM	–	0.977
[6], 12.3 nM	–	0.987
[6], 37 nM	–	0.954
[6], 111.1 nM	–	0.919
[6], 333.3 nM	–	1.02
[6], 1000 nM	–	1.1
[6], 3000 nM	–	1.07
[7], 4.1 nM	–	0.988
[7], 12.3 nM	–	0.965
[7], 37 nM	–	0.911
[7], 111.1 nM	–	1.08
[7], 333.3 nM	–	1.01
[7], 1000 nM	–	1.04
[7], 3000 nM	–	1.2
[8], 4.1 nM	2.21	–
[8], 12.3 nM	0.291	–
[8], 37 nM	0.446	–
[8], 111.1 nM	0.567	–
[8], 333.3 nM	1.09	–
[8], 1000 nM	1.6	–
[8], 3000 nM	3.09	–
[9], 4.1 nM	0.956	–
[9], 12.3 nM	0.513	–
[9], 37 nM	0.833	–
[9], 111.1 nM	0.595	–
[9], 333.3 nM	0.891	–
[9], 1000 nM	1.39	–
[9], 3000 nM	3.24	–
[10], 4.1 nM	0.435	–
[10], 12.3 nM	0.369	–
[10], 37 nM	0.461	–
[10], 111.1 nM	0.581	–
[10], 333.3 nM	0.809	–
[10], 1000 nM	1.18	–
[10], 3000 nM	2	–
[11], 4.1 nM	0.516	–
[11], 12.3 nM	0.962	–
[11], 37 nM	0.515	–
[11], 111.1 nM	0.866	–
[11], 333.3 nM	1.16	–
[11], 1000 nM	2.15	–
[11], 3000 nM	3.96	–
[12], 4.1 nM	0.942	–
[12], 12.3 nM	0.731	–
[12], 37 nM	0.378	–
[12], 111.1 nM	0.509	–
[12], 333.3 nM	0.894	–
[12], 1000 nM	1.65	–
[12], 3000 nM	3.07	–
[13], 4.1 nM	0.262	–
[13], 12.3 nM	0.642	–
[13], 37 nM	0.687	–
[13], 111.1 nM	0.7	–
[13], 333.3 nM	1.05	–
[13], 1000 nM	1.58	–
[13], 3000 nM	2.41	–
[14], 4.1 nM	0.537	–
[14], 12.3 nM	0.559	–
[14], 37 nM	0.53	–
[14], 111.1 nM	0.588	–
[14], 333.3 nM	0.79	–
[14], 1000 nM	1.64	–
[14], 3000 nM	2.69	–

Nc1nc(=O)c2nc(CNc3ccc(C(=O)N[C@@H](CCC(=O)O)C(=O)O)cc3)cnc2[nH]1 [Folic acid]
Settings	phenotypic distance	surviving fraction
[1], 4.1 nM	–	0.915
[1], 12.3 nM	–	1.07
[1], 37 nM	–	1
[1], 111.1 nM	–	1.07
[1], 333.3 nM	–	1.01
[1], 1000 nM	–	1.07
[1], 3000 nM	–	0.972
[2], 4.1 nM	–	1.16
[2], 12.3 nM	–	1.03
[2], 37 nM	–	1.12
[2], 111.1 nM	–	1.01
[2], 333.3 nM	–	1.05
[2], 1000 nM	–	1.1
[2], 3000 nM	–	0.939
[3], 4.1 nM	–	1.03
[3], 12.3 nM	–	1.03
[3], 37 nM	–	0.994
[3], 111.1 nM	–	0.948
[3], 333.3 nM	–	1.01
[3], 1000 nM	–	1.03
[3], 3000 nM	–	0.903
[4], 4.1 nM	–	1.15
[4], 12.3 nM	–	1.03
[4], 37 nM	–	0.979
[4], 111.1 nM	–	1.12
[4], 333.3 nM	–	0.974
[4], 1000 nM	–	1.04
[4], 3000 nM	–	0.925
[5], 4.1 nM	–	0.971
[5], 12.3 nM	–	1.05
[5], 37 nM	–	1.11
[5], 111.1 nM	–	0.954
[5], 333.3 nM	–	1.01
[5], 1000 nM	–	1.31
[5], 3000 nM	–	0.925
[6], 4.1 nM	–	0.982
[6], 12.3 nM	–	1.06
[6], 37 nM	–	0.964
[6], 111.1 nM	–	1
[6], 333.3 nM	–	1.17
[6], 1000 nM	–	1.02
[6], 3000 nM	–	1.21
[7], 4.1 nM	–	1.13
[7], 12.3 nM	–	0.968
[7], 37 nM	–	0.961
[7], 111.1 nM	–	0.969
[7], 333.3 nM	–	1.03
[7], 1000 nM	–	1.14
[7], 3000 nM	–	0.872
[8], 4.1 nM	0.612	–
[8], 12.3 nM	0.186	–
[8], 37 nM	0.499	–
[8], 111.1 nM	0.624	–
[8], 333.3 nM	0.464	–
[8], 1000 nM	0.432	–
[8], 3000 nM	0.539	–
[9], 4.1 nM	0.931	–
[9], 12.3 nM	0.68	–
[9], 37 nM	0.676	–
[9], 111.1 nM	0.509	–
[9], 333.3 nM	0.439	–
[9], 1000 nM	1.06	–
[9], 3000 nM	0.675	–
[10], 4.1 nM	0.364	–
[10], 12.3 nM	0.555	–
[10], 37 nM	0.5	–
[10], 111.1 nM	0.927	–
[10], 333.3 nM	0.637	–
[10], 1000 nM	0.333	–
[10], 3000 nM	0.748	–
[11], 4.1 nM	1.01	–
[11], 12.3 nM	0.395	–
[11], 37 nM	0.531	–
[11], 111.1 nM	0.763	–
[11], 333.3 nM	0.579	–
[11], 1000 nM	0.38	–
[11], 3000 nM	0.822	–
[12], 4.1 nM	0.522	–
[12], 12.3 nM	0.383	–
[12], 37 nM	0.987	–
[12], 111.1 nM	0.572	–
[12], 333.3 nM	0.378	–
[12], 1000 nM	0.745	–
[12], 3000 nM	0.583	–
[13], 4.1 nM	0.778	–
[13], 12.3 nM	0.355	–
[13], 37 nM	0.501	–
[13], 111.1 nM	0.396	–
[13], 333.3 nM	0.695	–
[13], 1000 nM	0.593	–
[13], 3000 nM	0.805	–
[14], 4.1 nM	0.277	–
[14], 12.3 nM	0.448	–
[14], 37 nM	0.256	–
[14], 111.1 nM	0.408	–
[14], 333.3 nM	0.439	–
[14], 1000 nM	0.452	–
[14], 3000 nM	0.335	–
